Values quoted from earlier work, collected in US8871277B2, “Particulate wood preservative and method for producing the same” (Osmose, Inc., priority 2003, dated 2014).
Like-named read-outs stand apart in the source and are kept apart here. Blank lines part the entries; values can stand above or below the molecule they belong to.

What was measured:
[1] = solubility product constant
[2] = Synthetic Precipitation Leaching Procedure

Molecule: copper 8-quinolinolate
Ksp [1]: 2 E−30

Molecule: [Cu] [copper]
solubility of copper (pH 4): 640 ppm
solubility of copper (pH 7): 2 ppm
solubility of copper (pH 10): about 0.01 ppm

Ksp [1]: 6 E−36
Molecule: copper sulfide

Molecule: copper citrate
copper in leachate from treated wood [2]: 62 mg copper per liter
